Data taken from US4042711A, “Derivatives of biphenyloxy-lower alkanoic acids, salts thereof and their use as antihyperlipidemics” (Boehringer Ingelheim GmbH, priority 1975, dated 1977).

test system: Cholesterol level in the serum; experiment: Lipid level lowering activity: serum cholesterol depression in normolipemic rats; type: in vivo, male normolipemic rats; settings: Rattus norvegicus; 28 hours after beginning of the test; oral; dose leading to 15% depression of serum cholesterol, by regression analysis
Procedure: (§1) The above pharmacologicaly activity of the compounds of this invention, as well as their acute toxicities, were ascertained along with those of the three antihyperlipidemic compounds of the prior art by the standard test methods described below.
The test compound was administered twice by an esophageal tube at 20 hours' interval to male normolipemic rats having a body weight of 250-300 gm. When the test began, the animals were deprived of food, but water was freely accessible to them. 28 and 44 hours later the serum cholesterol and triglyceride-levels were determined. The measurement of cholesterol and triglycerides was effected simultaneously, using an autoanalyzer; the percentage depression was calculated, compared with a control group treated with placebo.
The cholesterol-lowering activity of the test compound was observed after oral administration of one dose and after oral administration of various doses.

For CCOC(=O)C(C)(C)Oc1ccc(Cl)cc1 [C, ethyl 2-(4-chlorophenoxy)-2-methyl propionate], which ED15 is on record?
The ED15 was 15 mg/kg.

Which ED15 does the source give for COC(=O)C(C)(C)Oc1ccc(-c2ccc(Cl)cc2)cc1 [D, methyl 2-[4-(4-chlorophenyl)-phenoxy]-2-methyl-propionate] here?
Its ED15 is 6.9 mg/kg.

Which ED15 does the source give for CCOC(=O)C(C)(C)Oc1ccc(CCNC(=O)c2cc(Cl)ccc2OC)cc1 [E, ethyl 2-methyl-2-{4-[2-(2-methoxy-5-chloro-benzamido)-ethyl]-phenoxy}-propionate] here?
Its ED15 is 3.6 mg/kg.

same assay, conditions: Rattus norvegicus; 28 hours after beginning of the test; oral; dose leading to 20% depression of serum cholesterol, by regression analysis

With COc1ccc(Cl)cc1C(=O)NCCc1ccc(-c2ccc(OC(C)(C)C(=O)O)cc2)cc1 [A, 2-methyl-2-{4-[2-(2-methoxy-5-chloro-benzamido)-ethyl]-biphenyl-4'-oxy}-propionic acid] as the compound, how does the ED20 read?
The ED20 was 16 mg/kg.

With COc1ccccc1C(=O)NCCc1ccc(-c2ccc(OC(C)(C)C(=O)O)cc2)cc1 [B, 2-methyl-2-{4-[2-(2-methoxy-benzamido)-ethyl]-biphenyl-4'-oxy}-propionic a cid] as the compound, how does the ED20 read?
The ED20 was 3.1 mg/kg.

Which ED20 does the source give for CCOC(=O)C(C)(C)Oc1ccc(Cl)cc1 [C, ethyl 2-(4-chlorophenoxy)-2-methyl propionate] here?
Its ED20 is 22 mg/kg.

For COC(=O)C(C)(C)Oc1ccc(-c2ccc(Cl)cc2)cc1 [D, methyl 2-[4-(4-chlorophenyl)-phenoxy]-2-methyl-propionate], which ED20 is on record?
Its ED20 is 11 mg/kg.

For CCOC(=O)C(C)(C)Oc1ccc(CCNC(=O)c2cc(Cl)ccc2OC)cc1 [E, ethyl 2-methyl-2-{4-[2-(2-methoxy-5-chloro-benzamido)-ethyl]-phenoxy}-propionate], which ED20 is on record?
Its ED20 is 5 mg/kg.

same assay, conditions: Rattus norvegicus; 44 hours after beginning of the test; oral; dose leading to 15% depression of serum cholesterol, by regression analysis

With CCOC(=O)C(C)(C)Oc1ccc(Cl)cc1 [C, ethyl 2-(4-chlorophenoxy)-2-methyl propionate] as the compound, how does the ED15 read?
The ED15 was 25 mg/kg.

With COC(=O)C(C)(C)Oc1ccc(-c2ccc(Cl)cc2)cc1 [D, methyl 2-[4-(4-chlorophenyl)-phenoxy]-2-methyl-propionate] as the compound, how does the ED15 read?
Its ED15 is 4.4 mg/kg.

Which ED15 does the source give for CCOC(=O)C(C)(C)Oc1ccc(CCNC(=O)c2cc(Cl)ccc2OC)cc1 [E, ethyl 2-methyl-2-{4-[2-(2-methoxy-5-chloro-benzamido)-ethyl]-phenoxy}-propionate] here?
Its ED15 is 3.6 mg/kg.

same assay, conditions: Rattus norvegicus; 44 hours after beginning of the test; oral; dose leading to 20% depression of serum cholesterol, by regression analysis

Which ED20 does the source give for COc1ccc(Cl)cc1C(=O)NCCc1ccc(-c2ccc(OC(C)(C)C(=O)O)cc2)cc1 [A, 2-methyl-2-{4-[2-(2-methoxy-5-chloro-benzamido)-ethyl]-biphenyl-4'-oxy}-propionic acid] here?
The ED20 was 4.41 mg/kg.

With COc1ccccc1C(=O)NCCc1ccc(-c2ccc(OC(C)(C)C(=O)O)cc2)cc1 [B, 2-methyl-2-{4-[2-(2-methoxy-benzamido)-ethyl]-biphenyl-4'-oxy}-propionic a cid] as the compound, how does the ED20 read?
The ED20 was 0.59 mg/kg.

For CCOC(=O)C(C)(C)Oc1ccc(Cl)cc1 [C, ethyl 2-(4-chlorophenoxy)-2-methyl propionate], which ED20 is on record?
Its ED20 is 32 mg/kg.

With COC(=O)C(C)(C)Oc1ccc(-c2ccc(Cl)cc2)cc1 [D, methyl 2-[4-(4-chlorophenyl)-phenoxy]-2-methyl-propionate] as the compound, how does the ED20 read?
Its ED20 is 5.6 mg/kg.

For CCOC(=O)C(C)(C)Oc1ccc(CCNC(=O)c2cc(Cl)ccc2OC)cc1 [E, ethyl 2-methyl-2-{4-[2-(2-methoxy-5-chloro-benzamido)-ethyl]-phenoxy}-propionate], which ED20 is on record?
The ED20 was 5 mg/kg.

test system: white mice; experiment: Acute toxicity, oral; type: in vivo; settings: 14 days, at the dose given as LD50
Procedure: as §1
(§2) The acute toxicity was determined on groups of 5 or 6 white mice each, after oral administration of the test compound at dosage levels of 2.5 gm/kg, 5 gm/kg and 10 gm/kg (observation time 14 days).

For COc1ccc(Cl)cc1C(=O)NCCc1ccc(-c2ccc(OC(C)(C)C(=O)O)cc2)cc1 [A, 2-methyl-2-{4-[2-(2-methoxy-5-chloro-benzamido)-ethyl]-biphenyl-4'-oxy}-propionic acid], which animals died is on record?
Its animals died is 0 out of 5.

Which animals died does the source give for COc1ccccc1C(=O)NCCc1ccc(-c2ccc(OC(C)(C)C(=O)O)cc2)cc1 [B, 2-methyl-2-{4-[2-(2-methoxy-benzamido)-ethyl]-biphenyl-4'-oxy}-propionic a cid] here?
Its animals died is 1 out of 5.

Which animals died does the source give for COC(=O)C(C)(C)Oc1ccc(-c2ccc(Cl)cc2)cc1 [D, methyl 2-[4-(4-chlorophenyl)-phenoxy]-2-methyl-propionate] here?
Its animals died is 3 out of 5.

With CCOC(=O)C(C)(C)Oc1ccc(CCNC(=O)c2cc(Cl)ccc2OC)cc1 [E, ethyl 2-methyl-2-{4-[2-(2-methoxy-5-chloro-benzamido)-ethyl]-phenoxy}-propionate] as the compound, how does the animals died read?
The animals died was 3 out of 6.

test system: not listed separately; experiment: Acute toxicity, oral; type: in vivo; settings: mouse, in vivo, white mice, observation time 14 days
Procedure: as §1, §2

Which LD50 at 336 h does the source give for COc1ccc(Cl)cc1C(=O)NCCc1ccc(-c2ccc(OC(C)(C)C(=O)O)cc2)cc1 [A, 2-methyl-2-{4-[2-(2-methoxy-5-chloro-benzamido)-ethyl]-biphenyl-4'-oxy}-propionic acid] here?
The LD50 at 336 h was greater than 10000 mg/kg.

Which LD50 at 336 h does the source give for COc1ccccc1C(=O)NCCc1ccc(-c2ccc(OC(C)(C)C(=O)O)cc2)cc1 [B, 2-methyl-2-{4-[2-(2-methoxy-benzamido)-ethyl]-biphenyl-4'-oxy}-propionic a cid] here?
The LD50 at 336 h was greater than 2500 mg/kg.

For COC(=O)C(C)(C)Oc1ccc(-c2ccc(Cl)cc2)cc1 [D, methyl 2-[4-(4-chlorophenyl)-phenoxy]-2-methyl-propionate], which LD50 at 336 h is on record?
The LD50 at 336 h was 5000 mg/kg.

Which LD50 at 336 h does the source give for CCOC(=O)C(C)(C)Oc1ccc(CCNC(=O)c2cc(Cl)ccc2OC)cc1 [E, ethyl 2-methyl-2-{4-[2-(2-methoxy-5-chloro-benzamido)-ethyl]-phenoxy}-propionate] here?
Its LD50 at 336 h is 2500 mg/kg.

test system: not given; experiment: not given; settings: as disclosed in prior-art patents; cited from earlier work

For CCOC(=O)C(C)(C)Oc1ccc(Cl)cc1 [C, ethyl 2-(4-chlorophenoxy)-2-methyl propionate], which “antihypercholesteremic / antihyperlipidemic properties” value is on record?
The value was “has antihypercholesteremic properties”.

Which “antihypercholesteremic / antihyperlipidemic properties” value does the source give for COC(=O)C(C)(C)Oc1ccc(-c2ccc(Cl)cc2)cc1 [D, methyl 2-[4-(4-chlorophenyl)-phenoxy]-2-methyl-propionate] here?
Its value is “has antihyperlipidemic properties”.

Which “antihypercholesteremic / antihyperlipidemic properties” value does the source give for CCOC(=O)C(C)(C)Oc1ccc(CCNC(=O)c2cc(Cl)ccc2OC)cc1 [E, ethyl 2-methyl-2-{4-[2-(2-methoxy-5-chloro-benzamido)-ethyl]-phenoxy}-propionate] here?
The value was “exhibits similar properties”.

test system: not given; experiment: not given; settings: see Therapie 27, 385 (1972); cited from earlier work

For CCOC(=O)C(C)(C)Oc1ccc(Cl)cc1 [C, ethyl 2-(4-chlorophenoxy)-2-methyl propionate], which “Toxicity (LD50)” value is on record?
The value was 1.7 gm/kg.
